Columns and labels:
[1] = system: human prostate cancer cell DU145; assay: MTT proliferation assay, DU145; type: cell-based
Description: The cells were digested by trypsinase and centrifuged at 800 rpm for 5 minutes, the supernatant was discarded, and the residual was resuspended with fresh medium (DMEM medium+10% FBS+non-essential amino acid) and counted. The cells were seeded into 96-well cell culture plate with a density of 2000 cells per well and incubated overnight in a 5% CO2 incubator at 37° C. […] 5 μL of each concentration was added to 120 μL of medium (25 times diluted) and mixed by shaking. The overnight cell plates were taken and the culture medium was removed, 195 μL of fresh medium was added to each well, and 5 μL of diluted medium containing the corresponding concentration of the test compound was added respectively (the final concentrations of compounds are shown in Table 3, the final concentration of DMSO is 1%), and the culture plate was then placed in a 5% CO2 incubator at 37° C. for 4 days. After removing the original solution, 100 μL of fresh serum-free DMEM medium containing MTT (0.5 mg/mL) was added to each well, the culture was continued. […] GraphPad Prism 6.0 was used to analyze the data. The inhibitory activity of compounds on cell proliferation was plotted based on cell viability and the logarithm of compound concentration. Cell viability %=(ODcompound−ODbackground)/(ODDMSO−ODbackground)×100.

[2] = system: human lung cancer cell NCI-H460; assay: MTT proliferation assay, NCI-H460; type: cell-based
Description: (§1) The cells were seeded into 96-well cell culture plate with a density of 2000/4000 cells per well and incubated overnight in a 5% CO2 incubator at 37° C. […] 5 L diluent of each concentration was added to 120 μL of medium (25 times diluted) and mixed by shaking. The overnight cell plates were taken and the culture medium was removed, 195 μL of fresh medium was added to each well, and 5 μL of diluted medium containing the corresponding concentration of the test compound was added respectively (the final concentration of DMSO is 1%), and the culture plate was then placed in a 5% CO2 incubator at 37° C. for 4 days. After removing the original solution, 100 μL of fresh serum-free DMEM medium containing MTT (0.5 mg/mL) was added to each well, the culture was continued. […] Cell viability (%)=(ODcompound−ODbackground)/(ODDMSO−ODbackground)×100. GraphPad Prism 6.0 was used to analyze the data. The inhibitory activity of compounds on cell proliferation was plotted based on cell viability and the logarithm of compound concentration.

ATR/ATRIP enzyme = biological target: T1, ATR/ATRIP enzyme (Homo sapiens, UniProt Q13535); assay: ATR enzyme activity experiment (HTRF); type: biochemical
T1 construct: purchased Eurofins 14-953
Description: The test compound was diluted to a 4× final concentration with reaction buffer (25 mM HEPES (pH8.0), 10 mM MnCl2, 1% glycerol, 0.01% Brij-35, 5 mM DTT and 0.1% BSA). […] The mixture was centrifuged at 1000 rpm for 1 minute, and reacted at room temperature protected from light for 30 minutes. Then 5 μL of EDTA stop solution (250 mM) was added to stop the reaction. […] Data were analyzed using GraphPad Prism6.0, and fitted using the curve equation: Y=Bottom+(Top−Bottom)/(1+10^((Log IC50−X)*HillSlope)) and IC50 values were calculated.

[3] = system: human colon cancer cell LoVo; assay: MTT proliferation assay, LoVo; type: cell-based
Description: as §1, with “5 μL” for “5 L”, “viability (%)=(ODcompound−ODbackground)/(ODDMSO-ODbackground)×100.” for “viability (%)=(ODcompound−ODbackground)/(ODDMSO−ODbackground)×100.”

T1 sequence (Q13535 whole entry): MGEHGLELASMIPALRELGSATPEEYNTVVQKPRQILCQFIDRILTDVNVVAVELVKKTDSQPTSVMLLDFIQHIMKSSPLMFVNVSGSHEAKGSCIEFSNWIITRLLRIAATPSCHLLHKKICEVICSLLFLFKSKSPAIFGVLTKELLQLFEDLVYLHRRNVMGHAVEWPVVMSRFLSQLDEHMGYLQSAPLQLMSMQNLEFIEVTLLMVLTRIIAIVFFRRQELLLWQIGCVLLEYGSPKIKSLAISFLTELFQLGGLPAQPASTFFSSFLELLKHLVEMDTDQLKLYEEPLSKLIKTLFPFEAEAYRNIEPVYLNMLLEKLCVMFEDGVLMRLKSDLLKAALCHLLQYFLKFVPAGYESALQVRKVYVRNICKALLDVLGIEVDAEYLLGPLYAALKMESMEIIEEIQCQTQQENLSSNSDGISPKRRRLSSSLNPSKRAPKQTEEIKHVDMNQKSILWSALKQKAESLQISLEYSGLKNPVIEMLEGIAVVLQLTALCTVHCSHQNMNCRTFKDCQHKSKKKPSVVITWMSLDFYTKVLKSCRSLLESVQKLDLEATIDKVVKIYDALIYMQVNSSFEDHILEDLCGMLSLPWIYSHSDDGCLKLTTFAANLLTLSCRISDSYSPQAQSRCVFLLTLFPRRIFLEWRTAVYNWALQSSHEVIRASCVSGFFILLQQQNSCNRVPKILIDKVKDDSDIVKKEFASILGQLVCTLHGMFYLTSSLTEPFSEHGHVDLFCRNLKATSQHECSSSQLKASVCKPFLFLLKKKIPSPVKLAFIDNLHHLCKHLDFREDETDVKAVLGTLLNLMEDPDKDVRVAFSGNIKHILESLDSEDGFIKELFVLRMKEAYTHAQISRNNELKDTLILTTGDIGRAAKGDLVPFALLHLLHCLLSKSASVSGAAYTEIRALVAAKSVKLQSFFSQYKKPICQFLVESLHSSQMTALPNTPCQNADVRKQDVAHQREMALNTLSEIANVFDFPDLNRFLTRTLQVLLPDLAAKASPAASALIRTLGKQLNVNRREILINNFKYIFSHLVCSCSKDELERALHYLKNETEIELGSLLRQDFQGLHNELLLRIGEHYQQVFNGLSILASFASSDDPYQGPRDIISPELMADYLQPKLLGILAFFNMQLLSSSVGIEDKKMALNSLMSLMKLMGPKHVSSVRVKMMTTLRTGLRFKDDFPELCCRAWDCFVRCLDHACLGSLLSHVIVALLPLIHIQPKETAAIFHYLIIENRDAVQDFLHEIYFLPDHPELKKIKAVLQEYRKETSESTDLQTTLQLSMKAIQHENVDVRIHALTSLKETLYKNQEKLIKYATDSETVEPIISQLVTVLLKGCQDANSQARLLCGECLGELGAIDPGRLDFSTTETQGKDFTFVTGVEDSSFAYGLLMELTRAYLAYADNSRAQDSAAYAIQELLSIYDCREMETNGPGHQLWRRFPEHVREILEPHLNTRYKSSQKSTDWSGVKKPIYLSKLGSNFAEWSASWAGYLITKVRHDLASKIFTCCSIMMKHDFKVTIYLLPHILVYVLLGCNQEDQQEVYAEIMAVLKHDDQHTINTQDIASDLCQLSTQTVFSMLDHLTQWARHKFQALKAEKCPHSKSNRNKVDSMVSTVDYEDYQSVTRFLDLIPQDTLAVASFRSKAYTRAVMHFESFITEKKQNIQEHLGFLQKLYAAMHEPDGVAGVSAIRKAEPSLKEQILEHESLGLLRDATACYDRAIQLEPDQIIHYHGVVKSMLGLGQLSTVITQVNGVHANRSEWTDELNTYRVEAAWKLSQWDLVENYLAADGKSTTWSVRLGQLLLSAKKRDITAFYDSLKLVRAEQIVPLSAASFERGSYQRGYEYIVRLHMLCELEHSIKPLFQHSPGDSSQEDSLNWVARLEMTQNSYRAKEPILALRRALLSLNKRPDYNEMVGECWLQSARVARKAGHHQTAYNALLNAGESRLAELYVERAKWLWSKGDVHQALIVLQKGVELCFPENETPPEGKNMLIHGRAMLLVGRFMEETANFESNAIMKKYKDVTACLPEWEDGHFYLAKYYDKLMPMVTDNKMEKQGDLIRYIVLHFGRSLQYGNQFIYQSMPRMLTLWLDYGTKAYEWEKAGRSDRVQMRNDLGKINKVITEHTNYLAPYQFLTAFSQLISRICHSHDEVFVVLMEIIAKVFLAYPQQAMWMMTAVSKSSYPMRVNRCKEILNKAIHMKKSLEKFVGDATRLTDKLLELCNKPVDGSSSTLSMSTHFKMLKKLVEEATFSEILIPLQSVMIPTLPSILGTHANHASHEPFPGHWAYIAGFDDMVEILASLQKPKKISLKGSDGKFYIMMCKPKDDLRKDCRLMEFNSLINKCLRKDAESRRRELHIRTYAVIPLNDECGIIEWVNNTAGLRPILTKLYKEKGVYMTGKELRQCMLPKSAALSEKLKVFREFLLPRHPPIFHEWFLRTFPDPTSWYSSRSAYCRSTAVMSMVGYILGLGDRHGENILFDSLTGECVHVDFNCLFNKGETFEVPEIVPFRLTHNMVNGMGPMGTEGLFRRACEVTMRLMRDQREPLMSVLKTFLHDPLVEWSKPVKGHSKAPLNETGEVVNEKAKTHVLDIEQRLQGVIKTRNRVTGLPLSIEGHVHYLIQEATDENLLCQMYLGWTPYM
T1 sequence (Q8WXE1 whole entry partner): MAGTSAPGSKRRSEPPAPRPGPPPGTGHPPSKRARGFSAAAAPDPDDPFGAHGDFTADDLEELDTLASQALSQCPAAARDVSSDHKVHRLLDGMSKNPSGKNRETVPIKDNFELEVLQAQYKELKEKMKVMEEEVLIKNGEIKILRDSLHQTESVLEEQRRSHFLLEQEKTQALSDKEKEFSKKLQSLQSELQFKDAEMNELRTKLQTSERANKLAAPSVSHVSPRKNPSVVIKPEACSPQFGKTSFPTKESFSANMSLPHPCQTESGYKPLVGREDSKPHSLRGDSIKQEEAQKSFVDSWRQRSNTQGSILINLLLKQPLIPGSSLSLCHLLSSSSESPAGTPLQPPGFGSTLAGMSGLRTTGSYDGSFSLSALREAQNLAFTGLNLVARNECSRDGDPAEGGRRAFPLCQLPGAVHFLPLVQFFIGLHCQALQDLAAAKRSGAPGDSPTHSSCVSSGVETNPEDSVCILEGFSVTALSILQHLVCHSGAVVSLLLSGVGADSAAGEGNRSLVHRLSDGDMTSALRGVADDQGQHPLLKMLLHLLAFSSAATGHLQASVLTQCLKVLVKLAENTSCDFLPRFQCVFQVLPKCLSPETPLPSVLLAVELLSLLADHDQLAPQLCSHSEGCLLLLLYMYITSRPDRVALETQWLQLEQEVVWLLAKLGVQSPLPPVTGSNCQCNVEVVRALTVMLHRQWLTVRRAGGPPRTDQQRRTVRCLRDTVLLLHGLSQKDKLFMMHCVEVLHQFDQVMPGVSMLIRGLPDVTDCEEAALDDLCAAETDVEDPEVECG

Structure (SMILES): C[C@@H]1COCCN1c1cc(-c2ccnn2C)c2cnc(-c3ccn[nH]3)n2n1 [Example 13, (R)-3-methyl-4-(4-(1-methyl-1H-pyrazol-5-yl)-7-(1H-pyrazol-5-yl)imidazo[1,5-b]pyridazin-2-yl)morpholine]
- inhibitory effect on the proliferation of DU145 cell (in words) [1]: good inhibitory effect
- IC50 ([1]; Homo sapiens, DU-145, 96 h, 4 days, read-out: IC50 (nM), inhibition of proliferation of DU145): 131 nM
- inhibitory effect on the proliferation of NCI-H460 cell (in words) [2]: good inhibitory effect
- IC50 ([2]; Homo sapiens, NCI-H460, 96 h, 4 days, read-out: IC50 (nM), inhibition of proliferation of NCI-H460): 41.3 nM
- inhibitory effect on ATR kinase activity (in words) (ATR/ATRIP enzyme; ATR enzyme activity experiment): good inhibitory effect
- IC50 (ATR/ATRIP enzyme; read-out: IC50 (nM), inhibitory effects on ATR kinase activity, HTRF, p53 substrate, 30 minutes at room temperature): 4 nM
- inhibitory effect on the proliferation of LoVo cell (in words) [3]: good inhibitory effect
- IC50 ([3]; Homo sapiens, LoVo, 96 h, 4 days, read-out: IC50 (nM), inhibition of proliferation of LoVo): 53.5 nM

Reference: patent publication US12479848B2, “Substituted fused heteroaromatic bicyclic compounds as kinase inhibitors and the use thereof” (IMPACT THERAPEUTICS (SHANGHAI), INC, priority 2019, dated 2025)
